Assay results: patent publication US12678411B2, “Nanoformulations of pazopanib, compositions comprising the same and methods of treating osteoarthritis” (The United States Government as represented by the …, priority 2021, dated 2026)

Key:
[1] = system: mice with knee joint OA (PMM); assay: Mechanical allodynia (von Frey) in surgery-induced (PMM) knee OA mice; type: in vivo; details: IA 70 μg/kg twice per week, started at inflammatory pain stage
Method: Drugs are intraarticularly injected (twice/week) at 4 weeks after surgery (early OA stage). *p<0.05; **p<0.01; ***p<0.001; ****p<0.0001. PMM=partial medial meniscectomy.
2006; 33(2):348-354; and Kroin J S, et al. Gene. 2016. 10; 591(1): 1-5). Next, outcomes between IA injection of ZD6474 (also known as vandetanib, a selective inhibitor of Flk1, 70 μg/kg, injection frequency: twice per week) and pazopanib (an inhibitor of both Flt1 and Flk1, 70 μg/kg, injection frequency: twice per week) were compared. Twice perweek IA injection of these drugs was started at an inflammatory pain stage (within a week post-surgery) and continued for 12 weeks. After 12 weeks, joints were harvested, histopathological analyses performed, and pathological grading quantified by standard Osteoarthritis Research Society International (OARSI) scoring (1: Healthy, 5: Highly pathologic) (K. O. Vasquez and J. D. Peterson. J Pharmacol Exp Ther 2017, 361:87-98).
Nanoparticles of PEG-PCL (5k-b-6.5k) encapsulating pazopanib were prepared by the flash nanoprecipitation method using a multi-inlet vortex mixer (MIVM) (FIG. 13, nano-PAZ(I)). The resulting composition was intraarticularly injected into the knee joint of mice at the inflammatory pain stage (at one week after OA induction by surgery).

mice [2] = assay: Mechanical hyperalgesia after intrathecal injection in mice; type: in vivo; details: intrathecal (i.t.) injection
Method: VEGF-A induces pain hypersensitivity through effects in the peripheral nervous system (PNS) and central nervous system (CNS). IA injection of Flt1 ligand (but not Flk1 ligand) caused mechanical hypersensitivity within 30 min (FIG. 2), showing that Flt1 ligands can directly activate the PNS to induce pain. Additionally, it was reported that animals with chronic OA pain had increased spinal levels of VEGF-A (FIG. 10). […] Given the similar dose (10 ng) and time course of mechanical hyperalgesia following IA injection (FIG. 2) and i.t. injections of VEGF-A (FIG. 11), VEGF signaling appears to be equally able to induce pain hypersensitivity in the PNS and CNS.

mice [3] = details: cited from earlier work

Row | Compound | time after start of drug injection at which reduction in OA pain was seen [1] [weeks] | pain response (mechanical hyperalgesia) (mice [2]) | mechanical allodynia after IA injection (mice [3])
1 | COc1cc2c(Nc3ccc(Br)cc3F)ncnc2cc1OCC1CCN(C)CC1 [ZD6474, vandetanib] | 5 |  | 
2 | NGF: nerve growth factor, a well-known OA pain mediator |  | no pain response | acutely increased mechanical allodynia
